The source of these data is paper PMC3094704, “S-Petasin, the Main Sesquiterpene of Petasites formosanus, Inhibits Phosphodiesterase Activity and Suppresses Ovalbumin-Induced Airway Hyperresponsiveness” (Evidence-based Complementary and Alternative Medicine : eCAM, 2011).

The IC50 is the concentration needed to halve the response being measured. One may read the EC50 as the concentration giving half of the maximal effect.

One data set concerns guinea pig trachea. To be noted: precontracted by histamine, carbachol (CCh), KCl or leukotriene (LT) D4; read-out: IC50 in relaxing guinea pig trachea; cited from earlier work.
In a further data set the test system is female BALB/c mice. Briefly: Xylazine/ketamine-induced anesthesia. Type of data set: in vivo, mouse. To be noted: 10–100 μmol/kg s.c., 1 h before anesthesia. As to the method:
According to the method described by Robichaud et al. and modified by us, S-petasin (10–100 μmol/kg, s.c.) or rolipram (0.01–1 μmol/kg, s.c.), a reference drug, was injected into 8–12 week-old female BALB/c mice 1 h or 15 min, respectively, prior to an i.p. injection of xylazine (10 mg/kg)/ketamine (70 mg/kg). The vehicle (control) for S-petasin or for rolipram was a mixture of alcohol : DMSO : 30% HPβCD : saline (0.5 : 0.5 : 1 : 8 , v/v), or alcohol : DMSO : PEG 400 : saline (0.5 : 0.5 : 1 : 8, v/v), respectively. After loss of the righting reflex (i.e., when a mouse remained on its back and no longer spontaneously righted itself to a prone position), the duration of anesthesia was measured until its return as an endpoint.

The subject of data set [1] is OVA-sensitized and challenged BALB/c mice. The data set is described as follows: Inflammatory cells in BALF. It is filed as in vivo, mouse. How it is done: Ten female BABL/c mice in each group were sensitized by an intraperitoneal (i.p.) injection of 20 μg of OVA emulsified in 2.25 mg aluminum hydroxide gel in a total volume of 100 μL on days 0 and 14. The mice were challenged via the airway by 1% OVA in saline for 30 min on Days 28, 29 and 30 by ultrasonic nebulization. Six weeks after the last of three primary OVA challenges, the mice were exposed to 1% OVA for 30 min by nebulization as a secondary challenge. AHR was assessed on Day 74 (48 h after 1% OVA provocation) in each group. […] For comparison, sham-treated mice were sensitized but challenged with saline instead of 1% OVA (non-challenged). The vehicle, a mixture of alcohol : DMSO : 30% HPβCD : saline (0.5 : 0.5 : 1 : 8 , v/v), or S-petasin was injected at a volume of 0.01 mL/g of body weight. AHR was measured in unrestrained animals by barometric plethysmography using a whole-body plethysmograph (WBP) and analyzed using software of Life Science Suite P3 Analysis Modules (Gould, LDS Test and Measurement LLC, Valley View, OH, USA). The mice were placed into the main chamber of the WBP, and the baseline enhanced pause (P enh) value was determined. Then the mice were nebulized first with phosphate-buffered saline (PBS), and subsequently with increasing doses (6.25–50 mg/mL) of MCh for 3 min for each nebulization, followed by readings of breathing parameters for 3 min after each nebulization with determination of P enh values. Twenty-four hours after the P enh determination, these mice were anesthetized with pentobarbital (50 mg/kg, i.p.), and lavaged via a tracheal tube with PBS (1 × 1.0 mL, 37°C). After lavage, blood was collected from the jugular vein and allowed to sit so that it would coagulate. The collected bronchoalveolar lavage fluid (BALF) and coagulated blood were, respectively, centrifuged at 630 g for 7 min and at 3700 g for 10 min at 4°C, respectively. After centrifugation, the supernatants of BALF and serum were stored at −20°C until the determinations of cytokines, including interleukin (IL)-2, IL-4, IL-5, tumor necrosis factor (TNF)-α and interferon (IFN)-γ by flow cytometric methods using mouse Th1/Th2 cytokine CBA kits, of total immunoglobulin E (IgE), and of total IgG2a using enzyme-linked immunosorbent assay (ELISA) kits (Pharmingen, San Diego, CA, USA) according to the respective recommendations of the manufacturer. OVA-specific IgE was measured as described previously with some modifications. Wells were coated with 100 μL of OVA (20 μg/mL) instead of the capture antibody. Levels are expressed in arbitrary units, where one arbitrary unit equals the optical density of the sample divided by the optical density of unchallenged mouse serum or BALF (standard). The pellet from BALF was re-suspended in ACK lysing buffer (1.658 g NH4Cl, 0.2 g KHCO3 and 1.44 mg EDTA in 200 mL of water) to lyse the residual erythrocytes in each sample. The number of inflammatory cells was counted using a hemocytometer (Hausser Scientific, Horsham, PA, USA). Cytospun slides were stained and differentiated in a blinded fashion by counting at least 100 cells under light microscopy.

For data set [2], the system named is high-affinity rolipram binding sites (HARBSs) of guinea pig brain cell membranes. Briefly: Displacement of [3H]-rolipram (PDE4H determination). As to the method:
When the above-described guinea pigs were sacrificed, the whole brains were removed and homogenized with a glass/Teflon homogenizer (Glas-Col, Terre Haute, IN, USA) in 10 volumes of cold medium (pH 6.5) containing 20 mM Bis-Tris, 2 mM benzamidine, 2 mM EDTA, 50 mM sodium chloride, 0.1 mM PMSF and 1 mM dithiothreitol. At 4°C, the homogenate was centrifuged at 170 g for 5 min to remove connective tissues and blood vessels. The suspended homogenate was then re-centrifuged at 40 000 g for 30 min to separate the cytosolic and particulate portions. The particulate portion was re-suspended in a suspension at a concentration of 400 mg/mL (wet weight/volume), after washing three times with homogenizing buffer. The particulate portion mainly consisted of cell membranes. The binding ability of S-petasin (3–300 μM) or Ro 20-1724 (1–10,000 nM), a reference drug, to high-affinity rolipram binding sites (HARBSs) of the membranes was determined by replacing 2 nM [^3H]-rolipram in a reaction buffer at 30°C for 1 h, according to the method described by previous investigators and modified by us. Briefly, the reaction buffer consisted of 50 mM Tris-HCl and 5 mM MgCl2 (pH 7.5). The total volume of the reaction mixture was 25 μL, consisting of 10 μL of particulate suspension, 10 μL of [^3H]-rolipram and 5 μL of S-petasin or Ro 20-1724. After 1 h, the reaction was terminated by moving the reaction vessel into crushed ice. Then the reaction mixture was transferred onto Whatman GF/B glass-fiber filters, which were soaked in a 0.3% polyethyleneimine solution in a mini-funnel. The reaction mixture was filtered by centrifuging at 90 g for 10 s, and the filtrate was collected into a 1.5 mL Eppendorf tube with a top adapted to the outlet of the mini-funnel. The filters were washed with 300 μL of reaction buffer three times each in the same way, and transferred into 2 mL of cocktail for radiation counting (total binding) using a β-scintillation counter (Beckman, Fullerton, CA, USA). Non-specific binding, which was defined in the presence of 10 μM Ro 20-1724, was subtracted from the total binding to yield the specific binding. The effective concentration (EC50) values of S-petasin and Ro 20-1724, at which a half of [^3H]-rolipram bound onto HARBSs of cell membranes was displaced, were defined as the PDE4H values, and these were related to any adverse effects, such as nausea, vomiting and gastric hypersecretion.

Take `C=C(C)[C@@H]1C[C@@]2(C)C(=CC1=O)CC[C@@H](OC(=O)/C=C\SC)[C@@H]2C` [S-Petasin]: in the data set on guinea pig trachea, the IC50 is below 10 µM. In the data set on female BALB/c mice, the “Duration of xylazine/ketamine-induced anesthesia” value is “did not affect”. Besides, in data set [1] (30 μmol/kg s.c., exception at 10 μmol/kg), the “Increase in lymphocytes in BALF” value is given as “significantly suppressed”. In addition, in data set [1] (10–30 μmol/kg s.c.), the “Increase in eosinophils in BALF” value is given as “significantly suppressed”, the “Increase in neutrophils in BALF” value is “significantly suppressed”, the “Increase in total inflammatory cells in BALF” value is listed as “significantly suppressed” and the “Macrophages in BALF” value is “not affected”. The same molecule came in with an EC50 in data set [2] (HARBSs of guinea pig brain cell membranes) above 300 µM. For the same molecule, the “percentage displacement of [3H]-rolipram binding” value in data set [2] (at the highest concentration (300 μM), 2 nM [3H]-rolipram) was 28.0%±5.7%.
